Here are results for 80 molecules from the METLIN SMRT retention time set (Domingo-Almenara et al. 2019).

Molecules are shown by their SMILES.

The series is described as follows: gradient 5% acetonitrile 3 min, to 50% in 2 min, to 85% in 15 min, held 3 min, 100 µL/min. Particulars: column: Zorbax Extend-C18 2.1 x 50 mm; eluents: water / acetonitrile, 0.1% formic acid. Summed up: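 Standards, all pure, were combined into mixtures of ~100 molecules and run at 100 μL/min on a Zorbax Extend-C18 column (2.1 × 50 mm, 1.8 μm) with water and acetonitrile, each containing 0.1% formic acid. A coupled quadrupole time-of-flight mass spectrometer operated in positive and negative ionization mode. Retention time values come from computationally picked adduct peaks, each inspected manually.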
Molecule `COc1ccc(C(=O)Nc2cccn3cnnc23)cc1F` registered an RP-LC retention time of 676 s.

For the molecule `COc1ccccc1/C=C1\Cc2ccccc2C1=O`, the RP-LC retention time is 1140 s. Regarding `COc1cc(OC)c(OC)cc1CN1C[C@@H]2C(=O)N(C)C(=O)[C@@H]2C1`, the RP-LC retention time is 570 s. The molecule `CCCn1cc(C2=CCN(S(=O)(=O)c3cc(OC)ccc3OC)CC2)c2cccnc21` had an RP-LC retention time of 728 s. Turning to `COc1ccc(C2CC(=O)N(c3ccc(Cl)cc3)C(=O)C2)cc1OC`, the RP-LC retention time is 859 s.

Regarding `CCSc1nc2c(s1)c(=O)n(-c1ccccc1)c(=O)n2CC(=O)NCc1ccccc1`, the RP-LC retention time was 924 s. The same measure for `Cn1c(SCc2ccc([N+](=O)[O-])cc2)nnc1-c1ccc2c(c1)OCO2`: 721 s. The same measure for `CCOC(=O)C1=C(C)N(CC(=O)NC2CCCC2)c2ncnn2C1c1ccccc1` (stereo not given): 666 s; for `Cc1ccc(NC(=O)C2CCN(C(=O)c3ncn4c3COC(c3ccccc3)C4)CC2)cc1` (stereo not given): 626 s; for `Cc1ccc(N(C)C(=O)n2cnc3ccccc32)cc1`: 767 s. In turn, `O=C(CCc1conc1-c1ccc(F)cc1)NCc1ccccc1` returned an RP-LC retention time of 865 s.

Turning to `COc1ccc(-c2cn3c(CC(=O)NCc4ccc(N(C)C)cc4)csc3n2)cc1OC`, the RP-LC retention time stood at 588 s. `Cc1nc(-c2noc(-c3cccnc3)n2)cn1CC(=O)NCc1cccs1` registered an RP-LC retention time of 662 s. `Cc1ccc(OCC(=O)N2CCN(c3nc(CN4CCOCC4)cs3)CC2)cc1` registered an RP-LC retention time of 640 s. With `Cc1ccc(NC(=O)N2CCCC(C)(C(=O)NCc3ccc(F)cc3)C2)c(C)c1` (stereo not given), the RP-LC retention time was 949 s. With `CC1CCCC(NC(=O)c2cc(=O)[nH]c3ccc(Br)cc23)C1C` (stereo not given), the RP-LC retention time was 869 s. The same measure for `Cc1cc(F)ccc1NC(=O)Cn1cc2c(n1)CCC(C)C2` (stereo not given): 948 s. The same measure for `CCOC(=O)N1CCN(c2c(N3CCN(c4ccccn4)CC3)c(=O)c2=O)CC1`: 562 s. For the molecule `COC(=O)c1ccc(C2Nc3ccc(C)cc3[C@H]3OCC[C@@H]23)cc1` (stereo not given in full), the RP-LC retention time was 1050 s. As for `Cc1ccnc(N2CCC(C(=O)NCCCN(C)C3CCCCC3)CC2)n1`, the figure is 587 s. `Cn1c(=O)c(C(=O)N2CCN(c3ccccn3)CC2)nn(-c2ccc(Cl)cc2)c1=O` registered an RP-LC retention time of 663 s. The same measure for `Cc1nc(-c2cccc(-c3noc(COc4ccc(Cl)cc4)n3)c2)cs1`: 1280 s.

On to `Cc1nc(-c2cccc(N3CC(C(=O)N4CCCc5ccccc54)CC3=O)c2)no1` (stereo not given), for which the RP-LC retention time amounted to 783 s.

In turn, `Cc1cc(C)nc(Nc2nc3ccccc3[nH]2)n1` returned an RP-LC retention time of 615 s. Take `CCOC(=O)c1c(C)[nH]c(C(=O)N2CCC(C(C)C(=O)NCc3ccc(C)cc3)CC2)c1C` (stereo not given): the RP-LC retention time amounted to 846 s. As for `CCOc1ccc(C(=O)N2CCC3(C2)C(=O)Nc2ccccc23)cc1` (stereo not given), the figure is 725 s; as for `Cc1ccc(CNC(=O)c2cccc(C3CCCN(C(=O)NC(C)C)C3)c2)o1` (stereo not given), 833 s; as for `Cc1ccc(CNC(=O)c2cc3n(n2)CCCN(Cc2ccc(Cl)cc2)C3=O)o1`, 655 s.

In the case of `CC(=O)N[C@@H]1CN(C(=O)Cc2cccc3ccccc23)C[C@H]1CO`, the RP-LC retention time was 637 s.

In turn, `CCN1C(=O)CN(C(=O)CC(C)C)CC12CCOCC2` returned an RP-LC retention time of 634 s. On to `COC(=O)c1cc(C2CC2)nc2c1c(=O)n(Cc1cccc(C)c1)c(=O)n2C`, for which the RP-LC retention time stood at 1090 s.

The molecule `Cc1nc(-c2ccc3c(c2)n(CC(=O)N2CCC4(CC2)OCCO4)c(=O)n3C(C)C)no1` registered an RP-LC retention time of 720 s. In turn, `COCc1cc2nn(CC(=O)NC3CCCC3)c(=O)n2c(-c2ccccc2)n1` yielded an RP-LC retention time of 727 s.

As for `CCc1nc(CN2C(=O)COc3cc(S(=O)(=O)N4CCN(c5ncccn5)CC4)c(C)cc32)no1`, the RP-LC retention time amounted to 871 s. As for `Cc1nn(C(C)C(=O)NCCCOC(C)C)c(=O)c2nn(-c3ccccc3)c(C)c12` (stereo not given), the figure is 771 s; as for `O=S(=O)(NCc1cccnc1)c1ccc(Cl)cc1`, 566 s; as for `CCOC(=O)c1cncn1C(C)c1ccccc1` (stereo not given), 774 s. `COCCCNS(=O)(=O)c1ccccc1-c1nc(-c2cccc(F)c2)no1` gave an RP-LC retention time of 1040 s.

For the molecule `CC(C(=O)N1CCN(C)CC1)n1c2ccccc2c2cnn(C)c(=O)c21` (stereo not given), the RP-LC retention time is 612 s.

Take `COC(=O)c1cnc2nc(C)ccc2c1Nc1ccc2c(c1)OCCO2`: the RP-LC retention time was 652 s. With `Cc1[nH]nc(-c2cc(S(=O)(=O)NCCc3ccccc3)c(C)s2)c1C`, the RP-LC retention time amounted to 886 s. `Cc1ccc(N2CCC(NC(=O)c3cccc(N(C)C)c3)C2=O)cc1` (stereo not given) yielded an RP-LC retention time of 931 s.

On to `CCC(=O)N1CCc2cc(N3CC(C(=O)NCc4ccccc4F)CC3=O)ccc21` (stereo not given), for which the RP-LC retention time was 722 s.

The molecule `Cc1ccc(-c2nnc(Cc3nc(-c4ccccc4Cl)no3)o2)cc1C` came in with an RP-LC retention time of 1230 s. The same measure for `CCCn1cc(C2=CCN(S(=O)(=O)c3c(C)nn(C)c3C)CC2)c2cccnc21`: 896 s.

With `CCCn1nnc2cc(-c3noc(COc4ccc(Cl)cc4)n3)ccc21`, the RP-LC retention time amounted to 1120 s. The same measure for `CCc1ccc(NC(=O)N(CC)c2nc(-c3ccc(C4CCCCC4)cc3)cs2)cc1`: 641 s; for `O=C(CC1CCCC1)N1CCCC(c2nc(-c3ccccc3)n[nH]2)C1` (stereo not given): 801 s. As for `CCc1cccc(NC(=O)Nc2cnn(-c3ncc(N4CCCC4)cn3)c2)c1`, the figure is 749 s; as for `Cc1nc2ccccc2nc1NS(=O)(=O)c1ccc(N)cc1`, 764 s. Turning to `CCOC(=O)COc1cc(-c2ccc(C)cc2)nc2ccc(NC(=O)C3CCC3)cc12`, the RP-LC retention time is 1060 s. `Cc1cc(C)c(CN2CCC3(CC2)CC3c2noc(C)n2)c(C)c1` (stereo not given) had an RP-LC retention time of 655 s. Turning to `CCCCS(=O)CC(CO)NC(=O)/C=C/c1c(C)[nH]c(=O)[nH]c1=O` (stereo not given), the RP-LC retention time stood at 569 s. As for `Cc1ccc(NC(=O)N2CCC(N(C(=O)C3CC3)C3CCOCC3)CC2)c(C)c1`, the RP-LC retention time came out at 722 s. The same measure for `Cc1noc(C2CN(C(=O)Nc3ccc(F)c(Cl)c3)CC23CCOCC3)n1` (stereo not given): 783 s; for `O=C(c1ccccc1Br)N1CCc2nc(-c3ccccc3)ncc2C1`: 963 s. As for `Cn1c(C(=O)N2CCN(c3cccc(Cl)c3)CC2)cc2sccc21`, the figure is 1090 s; as for `CCn1cc(CCN2CCN(S(=O)(=O)c3ccc(C)cc3)CC2)c2cccnc21`, 652 s. `COc1ccc(CCC(=O)N2CCC(c3cc(N)on3)CC2)cc1` came in with an RP-LC retention time of 681 s.

`COc1ccc(NC(=O)c2ccc3[nH]c4c(c3c2)CN(C(=O)C2CCC2)CC4)c(OC)c1` returned an RP-LC retention time of 807 s. The same measure for `Cc1ccc(C(=O)NCC2CCCN(S(=O)(=O)c3c(C)cc(C)cc3C)C2)cc1` (stereo not given): 1060 s; for `COc1ccc(-n2c(=O)n(C)c(=O)c3cc(C(=O)Nc4cc(C)ccc4F)cnc32)cc1`: 912 s. In turn, `Cc1nn(CCC(=O)NCCCN2CCc3ccccc3C2)c(=O)c2nn(-c3ccccc3)c(C)c12` returned an RP-LC retention time of 648 s. The same measure for `CCC(C)NC(=O)C1CCN(S(=O)(=O)c2cn(CC)cn2)CC1` (stereo not given): 639 s. Molecule `Cn1c(=O)n(C)c2cc(S(=O)(=O)c3ccc(F)cc3)c(NC(=O)Cc3ccc(F)cc3)cc21` showed an RP-LC retention time of 874 s.

On to `COCCCNC(=O)Cn1nc(C)c2nn(-c3ccc(F)cc3)c(-n3cccc3)c2c1=O`, for which the RP-LC retention time stood at 795 s. Take `O=C(NCCc1ccccc1)Nc1nccn(-c2ccc(F)c(F)c2)c1=O`: the RP-LC retention time came out at 903 s. The same measure for `CSc1ccc(NC(=O)CCNc2cnc3cnccn23)cc1`: 619 s; for `CCc1nc2cc(N3CCC(C(=O)Nc4cc(C)ccc4OC)CC3)cnc2nc1CC`: 992 s. As for `CCCn1cc(S(=O)(=O)Nc2cc(C)cc(C)c2)c2cccnc21`, the figure is 946 s. The same measure for `O=C(CCc1c(-c2ccc(Cl)cc2)nc2ccccn12)Nc1ccc(F)cc1`: 748 s. In turn, `Cc1cc(=O)n(CC(=O)Nc2cccc(C)c2C)c(N(C)Cc2ccccc2)n1` showed an RP-LC retention time of 794 s. In turn, `O=C(O)c1ccccc1-c1ccccc1C(=O)Nc1ccc2c(c1)Cc1ccccc1-2` had an RP-LC retention time of 939 s. As for `Cc1nn2c(-n3ccnc3C)c3c(nc2c1-c1ccccc1)CCC3`, the figure is 606 s; as for `Cc1oc(C2CCN(S(=O)(=O)c3cccc(C#N)c3)CC2)nc1C(=O)N(C)C`, 751 s; as for `COc1ccc(Br)cc1S(=O)(=O)NCCc1ccccc1`, 962 s.

In the case of `CC(C)Oc1ccc(CNC(=O)c2ccc3c(c2)nc2n3CCN(C(C)C)C2=O)cc1`, the RP-LC retention time stood at 754 s.

With `Cc1ccc(Cl)cc1NC(=O)N1CCC(n2cnc3c(C)cccc3c2=O)CC1`, the RP-LC retention time worked out at 911 s. As for `COc1cc(NC(=O)c2c(O)c3cccnc3n(-c3ccccc3)c2=O)cc(OC)c1`, the figure is 1250 s; as for `Cc1ccnc(NC(=O)C2CCN(S(=O)(=O)c3cc(C(=O)N4CCCC4)n(C)c3)CC2)c1`, 674 s.
